The results in this text go back to US20240190880A1 (THE REGENTS OF THE UNIVERSITY OF MICHIGAN, priority 2021, published 2024).

Structures are written as SMILES.

For the first assay, the target named is T1, ER (Homo sapiens, UniProt P03372).
T1 construct: host or cells: T47D and MCF7 human breast cancer cells
T1 sequence (P03372 1-595): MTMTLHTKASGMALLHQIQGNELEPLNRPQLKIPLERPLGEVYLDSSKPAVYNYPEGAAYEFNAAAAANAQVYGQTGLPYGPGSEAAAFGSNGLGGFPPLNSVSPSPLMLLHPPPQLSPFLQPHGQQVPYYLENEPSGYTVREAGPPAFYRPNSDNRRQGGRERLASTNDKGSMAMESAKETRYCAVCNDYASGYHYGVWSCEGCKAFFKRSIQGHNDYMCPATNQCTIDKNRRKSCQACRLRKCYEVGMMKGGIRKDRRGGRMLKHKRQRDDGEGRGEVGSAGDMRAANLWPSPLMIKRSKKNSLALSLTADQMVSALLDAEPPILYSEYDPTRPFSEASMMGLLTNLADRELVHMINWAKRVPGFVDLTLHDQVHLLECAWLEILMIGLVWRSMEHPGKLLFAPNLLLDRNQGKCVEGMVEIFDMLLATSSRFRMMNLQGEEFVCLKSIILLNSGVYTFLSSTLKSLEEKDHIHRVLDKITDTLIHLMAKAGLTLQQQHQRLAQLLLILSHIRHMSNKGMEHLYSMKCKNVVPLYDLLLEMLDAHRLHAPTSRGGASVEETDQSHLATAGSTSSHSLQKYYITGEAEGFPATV
In words: ER degradation activity, in-cell western blot analysis in T47D cells. Type of assay: cell-based. The note with it: 16 hours, Table A does not say which cell line (T47D or MCF7), read-out: Potency (DC50). A digest of the protocol:
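Read-out is near-infrared fluorescence from an in-cell western, expressed as ER percentage relative to untreated and DMSO controls taken as 100%. T47D breast cancer cells received compound for 16 h in 0.5% DMSO.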
The term DC50 denotes the concentration at which degradation of the target reaches its halfway point. With `O=C1CCC(N2C(=O)c3cc4c(cc3C2=O)CN(CC2CCC(N3CCN(c5ccc([C@@H]6c7ccc(O)cc7CC[C@@H]6c6ccccc6)cc5)CC3)CC2)C4)C(=O)N1` (stereo partly drawn) [E 299, 2-(2,6-dioxopiperidin-3-yl)-6-((4-(4-(4-((1R,2S)-6-hydroxy-2-phenyl-1,2,3,4-tetrahydronaphthalen-1-yl)phenyl)piperazin-1-yl)cyclohexyl)methyl)-6,7-dihydropyrrolo[3,4-f]isoindole-1,3(2H,5H)-dione], the DC50 was 0.01 to 0.1 µM.
As for `O=C1CCC(N2C(=O)c3cc4c(cc3C2=O)CN(CC(=O)N2CCC3(CC2)CCN(c2ccc([C@@H]5c6ccc(O)cc6CC[C@@H]5c5ccccc5)nn2)CC3)C4)C(=O)N1` (mixture of isomers) [E 306, Rac-2-(2,6-dioxopiperidin-3-yl)-6-(2-(9-(6-((1S,2S)-6-hydroxy-2-phenyl-1,2,3,4-tetrahydronaphthalen-1-yl)pyridazin-3-yl)-3,9-diazaspiro[5.5]undecan-3-yl)-2-oxoethyl)-6,7-dihydropyrrolo[3,4-f]isoindole-1,3(2H,5H)-dione], the DC50 is > 0.1 µM.
As to `O=C1CCC(N2C(=O)c3cc4c(cc3C2=O)CN(C2CC(C(=O)N3CCCC(Oc5ccc([C@@H]6c7ccc(O)cc7CC[C@@H]6c6ccccc6)cc5)C3)C2)C4)C(=O)N1` (mixture of isomers) [E 22, Rac-2-(2,6-dioxopiperidin-3-yl)-6-(3-(3-(4-((1R,2S)-6-hydroxy-2-phenyl-1,2,3,4-tetrahydronaphthalen-1-yl)phenoxy)piperidine-1-carbonyl)cyclobutyl)-6,7-dihydropyrrolo[3,4-f]isoindole-1,3(2H,5H)-dione], the DC50 is > 0.1 µM.
Turning to `C[C@@H]1Cc2c([nH]c3ccccc23)[C@@H](c2c(F)cc(N3CC4(CCN(CC(=O)N5Cc6cc7c(cc6C5)C(=O)N(C5CCC(=O)NC5=O)C7=O)CC4)C3)cc2F)N1CC(F)F` (stereo partly drawn) [E 97, 6-(2-(2-(4-((1R,3R)-2-(2,2-difluoroethyl)-3-methyl-2,3,4,9-tetrahydro-1H-pyrido[3,4-b]indol-1-yl)-3,5-difluorophenyl)-2,7-diazaspiro[3.5]nonan-7-yl)acetyl)-2-(2,6-dioxopiperidin-3-yl)-6,7-dihydropyrrolo[3,4-f]isoindole-1,3(2H,5H)-dione], the DC50 was 0.01 to 0.1 µM.
As to `O=C1CCC(N2C(=O)c3cc4c(cc3C2=O)CN(C(=O)CN2CCC[C@H](Oc3ccc([C@@H]5c6ccc(O)cc6CC[C@@H]5c5ccc(F)cc5)cc3)C2)C4)C(=O)N1` (mixture of isomers) [E 159, Rac-2-(2,6-dioxopiperidin-3-yl)-6-(2-((S)-3-(4-((1R,2S)-2-(4-fluorophenyl)-6-hydroxy-1,2,3,4-tetrahydronaphthalen-1-yl)phenoxy)piperidin-1-yl)acetyl)-6,7-dihydropyrrolo[3,4-f]isoindole-1,3(2H,5H)-dione], the DC50 is > 0.1 µM.
Same read-out and setting: the result for `C[C@@H]1Cc2c([nH]c3ccccc23)[C@@H](c2c(F)cc(C3CCN(C(=O)[C@H]4CC[C@@H](N5Cc6cc7c(cc6C5)C(=O)N(C5CCC(=O)NC5=O)C7=O)CC4)CC3)cc2F)N1CC(F)F` (stereo partly drawn) [E 392, 6-((1S,4s)-4-(4-(4-((1R,3R)-2-(2,2-difluoroethyl)-3-methyl-2,3,4,9-tetrahydro-1H-pyrido[3,4-b]indol-1-yl)-3,5-difluorophenyl)piperidine-1-carbonyl)cyclohexyl)-2-(2,6-dioxopiperidin-3-yl)-6,7-dihydropyrrolo[3,4-f]isoindole-1,3(2H,5H)-dione] reads 0.01 to 0.1 µM; that for `C[C@@H]1Cc2c([nH]c3ccccc23)[C@@H](c2cnc(N3CCC4(CC3)CN(C(=O)CN3Cc5cc6c(cc5C3)C(=O)N(C3CCC(=O)NC3=O)C6=O)C4)nc2)N1CC(F)F` (stereo partly drawn) [E 259, 6-(2-(7-(5-((1R,3R)-2-(2,2-difluoroethyl)-3-methyl-2,3,4,9-tetrahydro-1H-pyrido[3,4-b]indol-1-yl)pyrimidin-2-yl)-2,7-diazaspiro[3.5]nonan-2-yl)-2-oxoethyl)-2-(2,6-dioxopiperidin-3-yl)-6,7-dihydropyrrolo[3,4-f]isoindole-1,3(2H,5H)-dione], < 0.01 µM; that for `C[C@@H]1Cc2c([nH]c3ccccc23)[C@@H](c2c(F)cc(N3CCC(CN4CC5(CC(N6Cc7cc8c(cc7C6)C(=O)N(C6CCC(=O)NC6=O)C8=O)C5)C4)CC3)cc2F)N1CC(F)F` (stereo partly drawn) [E 131, 6-(2-((1-(4-((1R,3R)-2-(2,2-difluoroethyl)-3-methyl-2,3,4,9-tetrahydro-1H-pyrido[3,4-b]indol-1-yl)-3,5-difluorophenyl)piperidin-4-yl)methyl)-2-azaspiro[3.3]heptan-6-yl)-2-(2,6-dioxopiperidin-3-yl)-6,7-dihydropyrrolo[3,4-f]isoindole-1,3(2H,5H)-dione], < 0.01 µM.
As for `C[C@@H]1Cc2c([nH]c3ccccc23)[C@@H](c2c(F)cc(N3CCC(N4CCC(CC(=O)N5Cc6cc7c(cc6C5)C(=O)N(C5CCC(=O)NC5=O)C7=O)CC4)CC3)cc2F)N1CC(F)F` (stereo partly drawn) [E 93, 6-(2-(1′-(4-((1R,3R)-2-(2,2-difluoroethyl)-3-methyl-2,3,4,9-tetrahydro-1H-pyrido[3,4-b]indol-1-yl)-3,5-difluorophenyl)-[1,4′-bipiperidin]-4-yl)acetyl)-2-(2,6-dioxopiperidin-3-yl)-6,7-dihydropyrrolo[3,4-f]isoindole-1,3(2H,5H)-dione], the DC50 is < 0.01 µM.
`C[C@@H]1Cc2cc(O)ccc2[C@@H](c2c(F)cc(N3CCC(N4CCC(C(=O)N5Cc6cc7c(cc6C5)C(=O)N(C5CCC(=O)NC5=O)C7)CC4)CC3)cc2F)N1CC(C)(F)F` (stereo partly drawn) [E 30, 3-(6-(1′-(4-((1S,3R)-2-(2,2-difluoropropyl)-6-hydroxy-3-methyl-1,2,3,4-tetrahydroisoquinolin-1-yl)-3,5-difluorophenyl)-[1,4′-bipiperidine]-4-carbonyl)-1-oxo-3,5,6,7-tetrahydropyrrolo[3,4-f]isoindol-2(1H)-yl)piperidine-2,6-dione]: the DC50 is > 0.1 µM.

The same assay, now with this note: compounds 16 hours, Table A does not say whether T47D or MCF7, read-out: Potency (DC50).
As for `C[C@@H]1Cc2cc(O)ccc2[C@H](c2c(F)cc(OC3CC4(CCN(C(=O)CN5Cc6cc7c(cc6C5)C(=O)N(C5CCC(=O)NC5=O)C7=O)CC4)C3)cc2F)N1CC(F)F` (stereo partly drawn) [E 456, 6-(2-(2-(4-((1R,3R)-2-(2,2-difluoroethyl)-6-hydroxy-3-methyl-1,2,3,4-tetrahydroisoquinolin-1-yl)-3,5-difluorophenoxy)-7-azaspiro[3.5]nonan-7-yl)-2-oxoethyl)-2-(2,6-dioxopiperidin-3-yl)-6,7-dihydropyrrolo[3,4-f]isoindole-1,3(2H,5H)-dione], the DC50 is > 0.1 µM.
